We go through eight compounds from ChEMBL document CHEMBL1201862, “PubChem BioAssay data set” (2004).

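Protocol summary: plate cells (96-well), add compound at 5 concentrations, incubate 48 h, interpolate endpoints linearly. At the GI50, growth is halved.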 The source made the active and inactive calls. Cut-off read from the data, not from the text of the source: active = GI50 up to about 1.1 µM and inactive = higher.

Among the test systems are UACC-257; T47D; EKVX; K562; MOLT-4; SW-620; M14; SK-OV-3; KM12; SF-268; OVCAR-4; NCI-H23; U-251; HL-60; SK-MEL-28; OVCAR-3; HCT-15; SK-MEL-2; IGROV-1; Hs-578T.
Common to all, as to test: NCI tumour cell line growth inhibition, 48 h

For `Cc1cc(-c2ccc(C(=O)C(Cl)(Cl)Cl)[nH]2)on1`, the GI50 was 42.1 µM (inactive) in the test with UACC-257; 52.2 µM (inactive) in the test on T47D; 35.1 µM (inactive) in the test with EKVX; 18.3 µM (inactive) in the test with K562; 2.95 µM (inactive) in the test on MOLT-4; 50.6 µM (inactive) with SW-620. Moreover, the GI50 is 35.5 µM (inactive) in the test with M14; 60 µM (inactive) in the test with SK-OV-3; 12.2 µM (inactive) with KM12; 36.9 µM (inactive) with SF-268; 35.5 µM (inactive) in the test with OVCAR-4; 23.8 µM (inactive) in the test with NCI-H23. Further, the GI50 in the test with U-251 was 15.4 µM (inactive); with HL-60, 21.1 µM (inactive); with SK-MEL-28 it was 31.4 µM (inactive); in the test with OVCAR-3, 25.1 µM (inactive); with HCT-15, 28 µM; in the test on SK-MEL-2, 23.9 µM (inactive).

Regarding `COc1cccc(/C=N/[N-]C(=S)Nc2ccccc2)c1[O-].O.[Zn+2]`, the GI50 is 55.5 µM (inactive) with UACC-257; 52 µM (inactive) in the test on IGROV-1; 49.1 µM (inactive) in the test on EKVX; 42 µM (inactive) in the test on K562; 28.6 µM (inactive) in the test with MOLT-4; 56.4 µM (inactive) with SW-620. Besides, the GI50 in the test on M14 was 44.5 µM (inactive); with SK-OV-3 it was 44.4 µM (inactive); in the test on KM12 it was 40.6 µM (inactive); in the test on SF-268 it was 47 µM (inactive); in the test with OVCAR-4, 23.5 µM (inactive); in the test with NCI-H23, 37.7 µM (inactive). For the same compound, the GI50 was 60.4 µM (inactive) with U-251; 28.8 µM (inactive) in the test on HL-60; > 100 µM (inactive) with SK-MEL-28; 40.5 µM (inactive) with OVCAR-3; 31.6 µM in the test on HCT-15; 63.7 µM (inactive) in the test with SK-MEL-2.

For the compound `CC1=[N+]([O-])C(C)(C)N(N=O)C1(C)C`, the GI50 in the test on UACC-257, in the test with T47D, with EKVX, in the test with K562, in the test with MOLT-4 and in the test with SW-620 was > 10 µM (inactive) throughout. Moreover, the GI50 in the test on M14, in the test with KM12, with SF-268, with OVCAR-4, with NCI-H23 and with U-251 was > 10 µM (inactive) each time. In addition, the GI50 in the test with HL-60 was > 10 µM (inactive); in the test with OVCAR-3, > 10 µM (inactive); in the test with HCT-15 it was above 10 µM; in the test on SK-MEL-2, > 10 µM (inactive).

Turning to `CSc1ccc2c(cc1=O)[C@@H](NC(C)=O)CCc1cc(O)c(O)c(O)c1-2`, the GI50 was 37.2 µM (inactive) with UACC-257; 15.2 µM (inactive) in the test on IGROV-1; 60.4 µM (inactive) in the test on T47D; 31.9 µM (inactive) in the test on EKVX; 13.2 µM (inactive) in the test with MOLT-4; 28.1 µM (inactive) in the test on SW-620. Besides, the GI50 is 18.7 µM (inactive) in the test with M14; > 100 µM (inactive) with SK-OV-3; 18.3 µM (inactive) in the test on KM12; 16.3 µM (inactive) with SF-268; 17.6 µM (inactive) with OVCAR-4; 20.5 µM (inactive) with NCI-H23. Also, the GI50 with U-251 was 16.3 µM (inactive); in the test with HL-60, 37.8 µM (inactive); with SK-MEL-28, > 100 µM (inactive); in the test with OVCAR-3 it was 18.6 µM (inactive); with HCT-15 it was 17.5 µM; in the test on SK-MEL-2, 32.9 µM (inactive).

In the case of `COC(=O)C(Cc1cn(C(C)n2cc(CC(NC(C)=O)C(=O)OC)c3ccccc32)c2ccccc12)NC(C)=O` (configuration not stated), the GI50 is > 100 µM (inactive) in the test on UACC-257; 12.9 µM (inactive) in the test on IGROV-1; 25.5 µM (inactive) with EKVX; 12.5 µM (inactive) in the test on Hs-578T; 34 µM (inactive) in the test with MOLT-4; > 100 µM (inactive) with SW-620. The GI50 in the test with M14 is > 100 µM (inactive); in the test on SK-OV-3, > 100 µM (inactive); with KM12, 32.1 µM (inactive); with SF-268 it was 48.1 µM (inactive); in the test on OVCAR-4, > 100 µM (inactive); in the test with NCI-H23 it was > 100 µM (inactive). Besides, the GI50 in the test on U-251 is > 100 µM (inactive); in the test on SK-MEL-28, > 100 µM (inactive); in the test on OVCAR-3 it was > 100 µM (inactive); in the test on HCT-15, above 100 µM; in the test on SK-MEL-2, > 100 µM (inactive).

For `N#CC(C#N)=C1/C(=C/C=C/C=C/C=C/c2ccc(N3CCCCC3)s2)S(=O)(=O)c2ccccc21`, the GI50 in the test with UACC-257 was > 100 µM (inactive); in the test on IGROV-1, > 100 µM (inactive); in the test with T47D, 80.9 µM (inactive); in the test with EKVX, > 100 µM (inactive); with K562 it was > 100 µM (inactive); with MOLT-4, 14.9 µM (inactive). Moreover, the GI50 in the test with SW-620, with M14, in the test on SK-OV-3, in the test on KM12, in the test with OVCAR-4 and in the test on NCI-H23 was > 100 µM (inactive) in each case. In addition, the GI50 was 46.7 µM (inactive) with U-251; > 100 µM (inactive) in the test with HL-60; > 100 µM (inactive) in the test on SK-MEL-28; > 100 µM (inactive) in the test with OVCAR-3; above 100 µM in the test on HCT-15; > 100 µM (inactive) in the test on SK-MEL-2.

Regarding `COc1cccc2c1C(=O)c1c(O)c3c(c(O)c1C2=O)CC(O)(C(O)CO)CC3OC1CC(N2CCOCC2)C(O)C(C)O1` (configuration not stated), the GI50 is 0.00338 µM (active) in the test on UACC-257; 0.00279 µM (active) in the test with IGROV-1; 0.00386 µM (active) in the test with EKVX; 0.0146 µM (active) in the test with Hs-578T; 0.00412 µM (active) in the test with K562; 0.00144 µM (active) with SW-620. Further, the GI50 in the test with M14 is 0.00295 µM (active); in the test with SK-OV-3 it was 0.00362 µM (active); with KM12 it was 0.00551 µM (active); in the test with SF-268, 0.00231 µM (active); with OVCAR-4, 0.00337 µM (active); in the test with NCI-H23, 0.00464 µM (active). Also, the GI50 in the test with U-251 is 0.0047 µM (active); in the test with SK-MEL-28, 0.00406 µM (active); with OVCAR-3 it was 0.0023 µM (active); with HCT-15, 0.00353 µM; in the test on SK-MEL-2 it was 0.00422 µM (active).

Regarding `COc1ccc2[nH]c3c(C)c4cc[n+](C)cc4c(C)c3c2c1`, the GI50 was 8.41 µM (inactive) in the test with UACC-257; 1.96 µM (inactive) with IGROV-1; 0.738 µM (active) in the test on EKVX; 0.125 µM (active) with Hs-578T; 0.587 µM (active) in the test with SW-620; 7.74 µM (inactive) in the test with SK-OV-3. Moreover, the GI50 with KM12 is 0.964 µM (active); with SF-268, 0.148 µM (active); in the test with OVCAR-4 it was 1.91 µM (inactive); in the test on NCI-H23 it was 0.521 µM (active); in the test with U-251 it was 0.105 µM (active); in the test with HL-60, 14.9 µM (inactive). Besides, the results for the GI50 in the test on SK-MEL-28, in the test with OVCAR-3 and with SK-MEL-2 were 1.32 µM (inactive), 2.82 µM (inactive) and 2.87 µM (inactive), respectively.
